From ChEMBL document CHEMBL1134887, “Muraymycins, novel peptidoglycan biosynthesis inhibitors: semisynthesis and SAR of their derivatives” (Bioorg Med Chem Lett, 2002) come the findings set out here.

Common to all, as to format: functional
In test [1] the test system is Staphylococcus epidermidis. The test is described as follows: Inhibitory activity against MraY/MurG at a concentration of 6.25 ug/mL No activity.
The test system of test [2] is Staphylococcus epidermidis. The test is described as follows: Inhibitory activity against MraY/MurG at a concentration of 25 ug/mL; No activity.
The test system of test [3] is Staphylococcus epidermidis. The test is described as follows: Compound was tested for reduction in the production of lipid II relative to the control(judged by intensity) on the film, inhibition of either MraY or MurG at a dose of 100 ug/mL.
Test [4] relates to Staphylococcus epidermidis. The test is described as follows: Compound was tested for reduction in the production of lipid II relative to the control(judged by intensity) on the film, inhibition of either MraY or MurG at a dose of 50 ug/mL.
Test [5] has as its system Staphylococcus epidermidis. The test is described as follows: Inhibitory activity against MraY/MurG at a concentration of 50 ug/mL; No activity.
Test [6] deals with Staphylococcus epidermidis. The test is described as follows: Inhibitory activity against MraY/MurG at a concentration of 6.25 ug/mL; No activity.
The subject of test [7] is Staphylococcus epidermidis. The test is described as follows: Inhibitory activity against MraY/MurG at a concentration of 100 ug/mL; No activity.
Test [8] relates to Staphylococcus epidermidis. The test is described as follows: Compound was tested for reduction in the production of lipid II relative to the control(judged by intensity) on the film, inhibition of either MraY or MurG at a dose of 6.25 ug/mL.
Test [9] deals with Staphylococcus epidermidis. The test is described as follows: Compound was tested for reduction in the production of lipid II relative to the control(judged by intensity) on the film, inhibition of either MraY or MurG at a dose of 25 ug/mL.
The test system of test [10] is Staphylococcus epidermidis. The test is described as follows: Inhibitory activity against MraY/MurG at a concentration of 100 ug/mL; Not activity.
Test [11] deals with Staphylococcus epidermidis. The test is described as follows: Inhibitory activity against MraY/MurG at a concentration of 6.25 ug/mL; Not activity.

Activity calls are given as the source filed them. The calls are words filed in the database; no cut-off is given here.

On to `CCCCCCCCCCCCN(CCCNC(=O)[C@@H](NC(=O)[C@@H](NC(=O)N[C@H](C(=O)O)C(C)C)[C@@H]1CCN=C(N)N1)[C@@H](O)C(C)C)[C@H](C(=O)O)C(O[C@@H]1O[C@H](CN)[C@@H](O)[C@H]1OC)[C@H]1O[C@@H](n2ccc(=O)[nH]c2=O)[C@H](O)[C@@H]1O` (some centres undefined), for which the Inhibitory activity entry in test [1] and in [2] was “inactive” throughout. Further, the Inhibitory activity entry in test [3] and in test [4] was “Active” each time.
Turning to `CO[C@H]1[C@H](OC([C@H](NCCCNC(=O)[C@@H](NC(=O)[C@@H](NC(=O)N[C@H](C(=O)O)C(C)C)[C@@H]2CCN=C(N)N2)[C@@H](O)C(C)C)C(=O)O)[C@H]2O[C@@H](n3ccc(=O)[nH]c3=O)[C@H](O)[C@@H]2O)O[C@H](C/N=C(C)/C=C(/C)O)[C@H]1O` (some centres undefined), the Inhibitory activity entry in test [5], in test [2], in [6] and in test [7] was “Active” in each case.
Take `CCCCCCCCCCCCN1C(=O)C(C(O[C@@H]2O[C@H](CN)[C@@H](O)[C@H]2OC)[C@H]2O[C@@H](n3ccc(=O)[nH]c3=O)[C@H](O)[C@@H]2O)N(CCCNC(=O)[C@@H](NC(=O)[C@@H](NC(=O)N[C@H](C(=O)O)C(C)C)[C@@H]2CCN=C(N)N2)[C@@H](O)C(C)C)C1=O` (some centres undefined): the Inhibitory activity entry in test [8], in test [9], in test [3] and in test [4] was “Active” each time.
Take `CO[C@H]1[C@H](OC([C@H](NCCCNC(=O)[C@@H](NC(=O)[C@@H](NC(=O)N[C@H](C(=O)O)C(C)C)[C@@H]2CCN=C(N)N2)[C@@H](O)C(C)C)C(=O)O)[C@H]2O[C@@H](n3ccc(=O)[nH]c3=O)[C@H](O)[C@@H]2O)O[C@H](CN)[C@H]1O` (some centres undefined): the Inhibitory activity entry in test [8], in test [9], in test [3] and in [4] was “Active” each time.
As to `CCCCCCCCNC(=O)NC[C@H]1O[C@@H](OC(C2C(=O)N(CCCCCCCC)C(=O)N2CCCNC(=O)[C@@H](NC(=O)[C@@H](NC(=O)N[C@H](C(=O)O)C(C)C)[C@@H]2CCN=C(N)N2)[C@@H](O)C(C)C)[C@H]2O[C@@H](n3ccc(=O)[nH]c3=O)[C@H](O)[C@@H]2O)[C@H](OC)[C@@H]1O` (some centres undefined), the Inhibitory activity result in test [10], in test [5], in test [2] and in [6] was “Active” each time.
As to `CO[C@H]1[C@H](OC(C2C(=O)N(c3ccc(F)cc3)C(=O)N2CCCNC(=O)[C@@H](NC(=O)[C@@H](NC(=O)N[C@H](C(=O)O)C(C)C)[C@@H]2CCN=C(N)N2)[C@@H](O)C(C)C)[C@H]2O[C@@H](n3ccc(=O)[nH]c3=O)[C@H](O)[C@@H]2O)O[C@H](CN)[C@H]1O` (some centres undefined), the Inhibitory activity entry in test [9], in test [11], in [3] and in test [4] was “Active” in each case.
In the case of `CCCCCNC[C@H]1O[C@@H](OC([C@H]2O[C@@H](n3ccc(=O)[nH]c3=O)[C@H](O)[C@@H]2O)[C@@H](C(=O)O)N(CCCCC)CCCNC(=O)[C@@H](NC(=O)[C@@H](NC(=O)N[C@H](C(=O)O)C(C)C)[C@@H]2CCN=C(N)N2)[C@@H](O)C(C)C)[C@H](OC)[C@@H]1O` (some centres undefined), the Inhibitory activity entry in test [5], in test [2], in test [6] and in test [7] was “inactive” throughout.
On to `CCCCCN1C(=O)C(C(O[C@@H]2O[C@H](CN)[C@@H](O)[C@H]2OC)[C@H]2O[C@@H](n3ccc(=O)[nH]c3=O)[C@H](O)[C@@H]2O)N(CCCNC(=O)[C@@H](NC(=O)[C@@H](NC(=O)N[C@H](C(=O)O)C(C)C)[C@@H]2CCN=C(N)N2)[C@@H](O)C(C)C)C1=O` (some centres undefined), for which the Inhibitory activity result in [5] and in test [3] was “Active” in each case. The Inhibitory activity entry in test [2] and in test [6] was “inactive” throughout.
On to `CO[C@H]1[C@H](OC(C2C(=O)N(c3ccc(F)cc3)C(=O)N2CCCNC(=O)[C@@H](NC(=O)[C@@H](NC(=O)N[C@H](C(=O)O)C(C)C)[C@@H]2CCN=C(N)N2)[C@@H](O)C(C)C)[C@H]2O[C@@H](n3ccc(=O)[nH]c3=O)[C@H](O)[C@@H]2O)O[C@H](CNC(=O)Nc2ccc(F)cc2)[C@H]1O` (some centres undefined), for which the Inhibitory activity entry in test [5], in test [2], in [6] and in test [7] was “Active” in each case.
For `CCCCCCNC(=O)NC[C@H]1O[C@@H](OC(C2C(=O)N(CCCCCC)C(=O)N2CCCNC(=O)[C@@H](NC(=O)[C@@H](NC(=O)N[C@H](C(=O)O)C(C)C)[C@@H]2CCN=C(N)N2)[C@@H](O)C(C)C)[C@H]2O[C@@H](n3ccc(=O)[nH]c3=O)[C@H](O)[C@@H]2O)[C@H](OC)[C@@H]1O` (some centres undefined), the Inhibitory activity result in test [5], in [2], in test [6] and in test [7] was “Active” throughout.
In the case of `COc1ccc(NC(=O)NC[C@H]2O[C@@H](OC(C3C(=O)N(c4ccc(OC)cc4)C(=O)N3CCCNC(=O)[C@@H](NC(=O)[C@@H](NC(=O)N[C@H](C(=O)O)C(C)C)[C@@H]3CCN=C(N)N3)[C@@H](O)C(C)C)[C@H]3O[C@@H](n4ccc(=O)[nH]c4=O)[C@H](O)[C@@H]3O)[C@H](OC)[C@@H]2O)cc1` (some centres undefined), the Inhibitory activity result in test [5], in test [2], in test [6] and in [7] was “Active” throughout.
Take `CO[C@H]1[C@H](OC(C2C(=O)N(Cc3ccccc3)C(=O)N2CCCNC(=O)[C@@H](NC(=O)[C@@H](NC(=O)N[C@H](C(=O)O)C(C)C)[C@@H]2CCN=C(N)N2)[C@@H](O)C(C)C)[C@H]2O[C@@H](n3ccc(=O)[nH]c3=O)[C@H](O)[C@@H]2O)O[C@H](CN)[C@H]1O` (some centres undefined): the Inhibitory activity entry in test [8], in test [9], in [3] and in [4] was “Active” throughout.
In the case of `CCCCCCCCCCCCNC(=O)NC[C@H]1O[C@@H](OC(C2C(=O)N(CCCCCCCCCCCC)C(=O)N2CCCNC(=O)[C@@H](NC(=O)[C@@H](NC(=O)N[C@H](C(=O)O)C(C)C)[C@@H]2CCN=C(N)N2)[C@@H](O)C(C)C)[C@H]2O[C@@H](n3ccc(=O)[nH]c3=O)[C@H](O)[C@@H]2O)[C@H](OC)[C@@H]1O` (some centres undefined), the Inhibitory activity entry in test [5], in [2], in test [6] and in test [7] was “Active” each time.
Regarding `CCCCCN(CCCNC(=O)[C@@H](NC(=O)[C@@H](NC(=O)N[C@H](C(=O)O)C(C)C)[C@@H]1CCN=C(N)N1)[C@@H](O)C(C)C)[C@H](C(=O)O)C(O[C@@H]1O[C@H](CN)[C@@H](O)[C@H]1OC)[C@H]1O[C@@H](n2ccc(=O)[nH]c2=O)[C@H](O)[C@@H]1O` (some centres undefined), the Inhibitory activity result in test [5] and in [3] was “Active” each time. Also, the Inhibitory activity entry in test [2] and in test [6] was “inactive” each time.
With `CO[C@H]1[C@H](OC([C@H]2O[C@@H](n3ccc(=O)[nH]c3=O)[C@H](O)[C@@H]2O)[C@@H](C(=O)O)N(CCCCCCCCCCCCN2CCOCC2)CCCNC(=O)[C@@H](NC(=O)[C@@H](NC(=O)N[C@H](C(=O)O)C(C)C)[C@@H]2CCN=C(N)N2)[C@@H](O)C(C)C)O[C@H](CN)[C@H]1O` (some centres undefined), the Inhibitory activity entry in test [5] and in test [3] was “Active” each time. For the same compound, the Inhibitory activity result in [2] and in [6] was “inactive” in each case.
In the case of `CO[C@H]1[C@H](OC([C@H]2O[C@@H](n3ccc(=O)[nH]c3=O)[C@H](O)[C@@H]2O)[C@@H](C(=O)O)N(CCCNC(=O)[C@@H](NC(=O)[C@@H](NC(=O)N[C@H](C(=O)O)C(C)C)[C@@H]2CCN=C(N)N2)[C@@H](O)C(C)C)Cc2ccc(-c3ccccc3)cc2)O[C@H](CNCc2ccc(-c3ccccc3)cc2)[C@H]1O` (some centres undefined), the Inhibitory activity result in [5], in [2], in [6] and in test [7] was “Active” throughout.
